Reference: patent US20120277238A1, “PHARMACEUTICAL COMPOSITION CONTAINING FUSED HETERO-RING DERIVATIVE” (Shionogi & Co., Ltd, priority 2009, published 2012)

How the values were obtained:
human HRH4 = target: T1, human HRH4 (Homo sapiens, UniProt Q9H3N8); assay: Histamine H4 receptor binding test ([3H]-Histamine radioligand binding); settings: membrane fraction of CHO-K1 expressing human HRH4; [3H]-Histamine 15 nM; Ki by Cheng-Prusoff
T1 construct: purchased PerkinElmer
Description: Membrane fraction of CHO-K1 stably expressing human HRH4 was purchased from PerkinElmer. Radioligand binding assay was performed in 96 well polypropylene assay plates in a total assay volume of 150 μL. Membrane suspension (15 μg of protein) was mixed with [3H]-Histamine (PerkinElmer) at 15 nM and compounds at various concentration in 50 mM Tris-HCl pH7.4, 5 mM EDTA buffer. Assays were incubated for 60 min at room temperature, then the reactions were terminated by rapid filtration over 96-well GF/B filter plates (PerkinElmer) presoaked in 0.5% polyethyleneimine. Unbound radioactivity was eliminated by six times of wash with 350 μL of ice-cold 50 mM Tris pH7.4 buffer. When the filter plates were dried, Microscint-MS liquid scintillation fluid (PerkinElmer) was added to each well and retained radioactivity plates were counted in a Topcount liquid scintillation counter (PerkinElmer). Specific binding was calculated by subtracting non-specific binding determined in the presence of 100 μM unlabeled histamine from total count.
The resulting data were analyzed for IC50 using the non-linear regression on XLfit.
Affinity values (Ki) were then determined by Cheng-Prusoff equation.

[1] = Metabolism stability test (rat); format: in vitro ADME; settings: 30 minutes, 37° C.
[2] = Metabolism stability test (human); format: in vitro ADME; settings: 30 minutes, 37° C.
Description: Using commercially available pooled human hepatic microsomes, prepared in accordance with Japanese journal of pharmacology, 33 (1), p. 41-56, February 1983, a test compound was reacted for a constant time, a remaining rate was calculated by comparing a reacted sample and an unreacted sample, thereby, a degree of metabolism in liver was assessed.
A reaction was performed (oxidative reaction) at 37° C. for 0 minute or 30 minutes in the presence of 1 mmol/L NADPH in 0.2 mL of a buffer (50 mmol/L tris-HCl pH 7.4, 150 mmol/L potassium chloride, 10 mmol/L magnesium chloride) containing 0.5 mg protein/mL of human liver microsomes. After the reaction, 50 μL of the reaction solution was added to 100 μL of a methanol/acetonitrile=1/1 (v/v), mixed and centrifuged at 3000 rpm for 15 minutes. The test compound in the supernatant was quantified by LC/MS/MS, and a remaining amount of the test compound after the reaction was calculated, letting a compound amount at 0 minute reaction time to be 100%. Hydrolysis reaction was performed in the absence of NADPH and glucuronidation reaction was in the presence of 5 mM UDP-glucuronic acid in place of NADPH, followed by similar operations.

CYP3A4 = CYP3A4 (Homo sapiens, UniProt P08684); assay: CYP3A4 fluorescent MBI test; format: in vitro ADME; parameters: host or cells: Escherichia coli; settings: prereaction 0 or 30 minutes; substrate 7-BFC; CYP3A4 expressed in Escherichia coli
CYP3A4, sequence (P08684 whole entry): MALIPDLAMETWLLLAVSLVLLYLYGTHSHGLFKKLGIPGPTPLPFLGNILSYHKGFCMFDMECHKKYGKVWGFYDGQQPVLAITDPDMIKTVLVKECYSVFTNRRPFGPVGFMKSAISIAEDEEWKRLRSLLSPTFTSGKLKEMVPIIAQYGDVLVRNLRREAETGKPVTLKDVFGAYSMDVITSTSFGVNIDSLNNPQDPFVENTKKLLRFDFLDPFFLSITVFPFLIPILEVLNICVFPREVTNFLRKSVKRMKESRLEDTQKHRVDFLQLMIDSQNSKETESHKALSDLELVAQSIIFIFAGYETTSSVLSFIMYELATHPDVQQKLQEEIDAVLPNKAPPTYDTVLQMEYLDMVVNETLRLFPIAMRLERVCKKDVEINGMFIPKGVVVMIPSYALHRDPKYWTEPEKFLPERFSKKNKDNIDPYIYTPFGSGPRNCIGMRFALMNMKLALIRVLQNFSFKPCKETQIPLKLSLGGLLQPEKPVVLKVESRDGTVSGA
Description: The CYP3A4 fluorescent MBI test is a test of investigating enhancement of CYP3A4 inhibition of a compound by a metabolism reaction, and the test was performed using, as CYP3A4 enzyme expressed in Escherichia coli and employing, as an index, a reaction in which 7-benzyloxytrifluoromethylchmarin (BFC) is debenzylated by the CYP3A4 enzyme to produce a metabolite, 7-hydroxytrifluoromethylchmarin (HFC) emitting fluorescent light.
The reaction conditions were as follows: substrate, 5.6 μmol/L 7-BFC; prereaction time, 0 or 30 minutes; reaction time, 15 minutes; reaction temperature, 25° C. […]
An enzyme in a K-Pi buffer (pH 7.4) and a test drug solution as a pre-reaction solution were added to a 96-well plate at the composition of the pre-reaction, a part of it was transferred to another 96-well plate so that it was 1/10 diluted by a substrate in a K-Pi buffer, NADPH as a co-factor was added to initiate a reaction as an index (without preincubation) and, after a predetermined time of a reaction, acetonitrile/0.5 mol/L Tris(trishydroxyaminomethane)=4/1 was added to stop the reaction. […] For the plate on which each index reaction had been performed, a fluorescent value of 7-HFC which is a metabolite was measured with a fluorescent plate reader. […]

[3] = Bioavailability (BA) test and total body clearance test; format: in vivo; settings: plasma, rat
Description: (1) Animal: mice or rats (2) Breeding conditions: mice and rats are allowed to freely take solid feed and sterilized tap water (3) Dose and grouping: orally or intravenously administered at a predetermined dose; grouping is as follows (Dose depends on the compound)
Oral administration: 1 to 30 mg/kg (n=2 to 3)
Intravenous administration: 0.5 to 10 mg/kg (n=2 to 3)
(4) Preparation of dosing solution: for oral administration, in a solution or a suspension state; for intravenous administration, in a solubilized state (5) Administration method: in oral administration, forcedly administer into ventriculus with oral probe; in intravenous administration, administer from caudal vein with a needle-equipped syringe (6) Evaluation items: blood is collected over time, and the plasma concentration of drug is measured by LC/MS/MS (7) Statistical analysis: regarding the transition of the plasma concentration, the area under the plasma concentration-time curve (AUC) and total body clearance (Clt) are calculated by non-linear least squares program WinNonlin (Registered trademark), and the bioavailability (BA) is calculated from the AUCs of the oral administration group and intravenous administration group
The following values show the rat BA of the compounds on oral 1 mg/kg dosage.

[4] = test compound concentration 0.5 μmol/L
[5] = test compound concentration 2 μmol/L

T1 sequence (Q9H3N8 whole entry): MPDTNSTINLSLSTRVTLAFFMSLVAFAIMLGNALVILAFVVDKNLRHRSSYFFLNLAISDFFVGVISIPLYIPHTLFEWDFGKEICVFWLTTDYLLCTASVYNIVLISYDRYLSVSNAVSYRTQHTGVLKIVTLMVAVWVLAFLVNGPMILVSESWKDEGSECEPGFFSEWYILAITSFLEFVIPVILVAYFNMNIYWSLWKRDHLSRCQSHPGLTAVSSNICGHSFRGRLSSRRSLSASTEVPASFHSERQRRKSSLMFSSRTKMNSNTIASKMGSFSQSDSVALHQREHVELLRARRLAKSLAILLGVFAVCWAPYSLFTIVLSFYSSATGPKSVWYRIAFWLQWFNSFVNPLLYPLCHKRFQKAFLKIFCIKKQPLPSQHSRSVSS

Compound	Ki (human HRH4) [nM]	further results
O=C(c1nc2c([nH]1)CCCC2)N1CCNCC1 [Compound I-008]	420	
CN1CCN(C(=O)c2cc3c([nH]2)CCOC3)CC1 [Compound I-052]	380	
CN1CCN(C(=O)c2nc3c([nH]2)CCCC3)CC1 [Compound I-049]	150	
CN1CCN(C(=O)c2cc3c([nH]2)C(O)CC3)CC1 (stereo not drawn) [Compound I-012]	680	remaining rate [1, 4]: 92%; remaining rate [2, 4]: 94%
CN1CCN(C(=O)c2cc3c([nH]2)CCC3O)CC1 (stereo not drawn) [Compound I-010]		CYP3A4 MBI: difference between IC50 values (CYP3A4): (−) (when the difference is 3 μM or less, this was defined as (−))
C#CC1=Cc2cc(C(=O)N3CCN(C)CC3)[nH]c2CC1 [Compound I-033]	320	
CN1CCN(C(=O)c2cc3c([nH]2)CCC(Cl)(Cl)C3O)CC1 (stereo not drawn) [Compound I-066]	350	
Cc1ccc(S(=O)(=O)OC2CCc3[nH]c(C(=O)N4CCN(C)CC4)cc3C2)cc1 (stereo not drawn) [Compound I-019]	200	
CN1CCN(C(=O)c2cc3c([nH]2)CC(O)CC3)CC1 (stereo not drawn) [Compound I-075]	20	
CN1CCN(C(=O)c2cc3c([nH]2)CC(O)C(Cl)(Cl)C3)CC1 (stereo not drawn) [Compound I-076]	25	
CN1CCN(C(=O)c2cc3c([nH]2)C(C)(O)CCC3)CC1 (stereo not drawn) [Compound I-040]	180	
CNC1CCN(C(=O)c2cc3c([nH]2)CCCC3)C1 (stereo not drawn) [Compound I-003]	680	
CN1CCN(C(=O)c2cc3c([nH]2)CCC(F)C3O)CC1 (stereo not drawn) [Compound I-053]	140	
COC1c2cc(C(=O)N3CCNCC3)[nH]c2CCC1(Cl)Cl (stereo not drawn) [Compound I-067]	480	
CC(=O)n1c(C(=O)N2CCN(C)CC2)cc2c1CCCC2 [Compound I-059]	270	
COC1CCc2[nH]c(C(=O)N3CCN(C)CC3)cc2C1 (stereo not drawn) [Compound I-023]	990	
CC1CCCc2[nH]c(C(=O)N3CCN(C)CC3)cc21 (stereo not drawn) [Compound I-009]	150	
O=C(c1cc2c([nH]1)CCCC2)N1C[C@H]2CCCN[C@H]2C1 [Compound I-062]	260	
CN1CCN(C(=O)c2cc3c([nH]2)CCCCC3)CC1 [Compound I-013]	300	
CN1CCN(C(=O)c2cc3c([nH]2)[C@H]2CC[C@@H]3C2)CC1 [Compound I-046]	290	
O=C(c1cc2c([nH]1)CCC(Cl)(Cl)C2)N1CCNCC1 [Compound I-055]	23	
O=C(c1cc2c([nH]1)CCC(Cl)(Cl)C2O)N1CCNCC1 (stereo not drawn) [Compound I-073]	980	bioavailability ([3]; oral 1 mg/kg dosage): 59%; clearance ([3]; intravenous, read-out: Clt (total body clearance)): 24 mL/min/kg; remaining rate [1, 5]: 79%; remaining rate [2, 5]: 99%
CCOC1c2cc(C(=O)N3C[C@H]4CCCN[C@H]4C3)[nH]c2CCC1(F)F (stereo partly drawn) [Compound I-070]	270	
CN1CCN(C(=O)c2cc3c([nH]2)CCC(Cl)C3)CC1 (stereo not drawn) [Compound I-020]	22	

Compound	Ki (human HRH4) [nM]	further results
CN1CCN(C(=O)c2cc3c([nH]2)CCCC3O)CC1 (stereo not drawn) [Compound I-051]	250	
O=C(c1cc2c([nH]1)CCC(F)(F)C2O)N1C[C@H]2CCCN[C@H]2C1 (stereo partly drawn) [Compound I-064]	180	
CN1CCN(C(=O)c2cc3c([nH]2)C(O)CCC3)CC1 (stereo not drawn) [Compound I-036]	88	
CN1CCN(C(=O)c2cc3c([nH]2)CCC(=O)C3)CC1 [Compound I-016]	370	
CN1CCN(C(=O)c2cc3c([nH]2)C(C)(O)CC3)CC1 (stereo not drawn) [Compound I-057]	440	
CN1CCN(C(=O)c2cc3c([nH]2)C(=O)CCC3)CC1 [Compound I-024]	710	
CCC1(O)CCCc2cc(C(=O)N3CCN(C)CC3)[nH]c21 (stereo not drawn) [Compound I-041]	590	
CC1CCc2cc(C(=O)N3CCN(C)CC3)[nH]c2C1 (stereo not drawn) [Compound I-017]	570	
CC1CCc2[nH]c(C(=O)N3CCN(C)CC3)cc2C1 (stereo not drawn) [Compound I-015]	86	
O=C(c1cc2c([nH]1)CCC(F)(F)C2O)N1CCN2CCCC2C1 (stereo not drawn) [Compound I-068]	520	
CC1CCCc2cc(C(=O)N3CCN(C)CC3)[nH]c21 (stereo not drawn) [Compound I-026]	100	
O=C(c1cc2c([nH]1)CCCC2)N1CCNCC1 [Compound I-005]	250	
CN1CCN(C(=O)c2cc3c([nH]2)CCC(C)(C)C3)CC1 [Compound I-022]	70	
CN1CCN(C(=O)c2cc3c([nH]2)CCC(Cl)(Cl)C3)CC1 [Compound I-047]	14	
O=C(c1cc2c([nH]1)CCCC2)N1CC2CCCNC2C1 (stereo not drawn) [Compound I-006]	230	
COC1c2cc(C(=O)N3CCN(C)CC3)[nH]c2CCC1(Cl)Cl (stereo not drawn) [Compound I-069]	220	
CN1CCN(C(=O)c2cc3c([nH]2)CCC(C(F)(F)F)C3)CC1 (stereo not drawn) [Compound I-045]	910	
O=C(c1cc2c([nH]1)CCC(F)(F)C2)N1CCNCC1 [Compound I-056]	130	
CC(C)C(=O)n1c(C(=O)N2CCN(C)CC2)cc2c1CCCC2 [Compound I-061]	210	
CN1CCN(C(=O)c2cc3c([nH]2)CCC=C3)CC1 [Compound I-021]	120	
CN1CCN(C(=O)c2cc3c([nH]2)CCCC3)CC1 [Compound I-048]	110	
CN1CCN(C(=O)c2cc3c([nH]2)CCC(F)(F)C3O)CC1 (stereo not drawn) [Compound I-054]	230	
CN1CCN(C(=O)c2cc3c([nH]2)CC=C(F)C3)CC1 [Compound I-065]	35	
CN1CCN(C(=O)c2cc3c([nH]2)CCC(c2ccccc2)=C3)CC1 [Compound I-027]	760	
